According to patent US20050137252A1, “Production of dihydronepetalactone” (priority 2003, published 2005):

System: Aedes aegypti mosquitoes
Assay: in vitro Gupta box landing assay (insect repellency)
Details: 1% in IPA, 25 μl on Baudruche membrane over bovine blood at 37° C.; about 250 4-day-old female mosquitoes; probing recorded at 2 minute intervals over 20 minutes; mean of three replicates; compared with prior-art DHN materials
Experimental: The product of Example 1 is evaluated for insect repellency in a comparison test with DHN stereoisomers prepared according to prior-art methods, and against the major commercial insect repellent composition, DEET (N,N-diethyl-m-toluamide). As a control, neat iso-propanol (IPA) is employed as well. Repellency is determined against Aedes aegypti mosqutioes in the in vitro Gupta box landing assay. In this method a chamber contains 5 wells, each covered by a Baudruche (animal intestine) membrane. Each well is filled with bovine blood, containing sodium citrate (to prevent clotting) and ATP (72 mg ATP disodium salt per 26 ml of blood), and heated to 37° C. A volume of 25 μl of isopropyl alcohol (IPA) containing one test specimen or control is applied to each membrane. The concentrations are all 1% in IPA except where otherwise indicated. Controls are either neat IPA, an untreated membrane surface, or a membrane surface treated with a 1% solution of DEET. After 5 min, approximately 250 4-day-old female Aedes aegypti mosquitoes are introduced into the chamber. The number of mosquitoes probing the membranes for each treatment is recorded at 2 minute intervals over 20 minutes. Each datum represents the mean of three replicate experiments.

CC1COC(=O)C2C(C)CCC12 (single isomer, unassigned) [DHN Structure F]
repellent efficacy (mean number of landings over elapsed time, FIG. 3): compared well in repellent efficacy
